The text below walks through data of ChEMBL document CHEMBL5126499, “Small molecule therapeutics for tauopathy in Alzheimer's disease: Walking on the path of most resistance” (Eur J Med Chem, 2021).

In general, inhibition refers to the drop in the measured response relative to a control, in per cent. What is called IC50 is the concentration that inhibits the measured activity by half. What is called EC50 is the concentration giving half of the maximal effect. In general, Tmax refers to the time at which the peak concentration occurs.

The species entered for data set [1] is Homo sapiens. As to the kind of experiment: Inhibition of human HSP70 ATPase activity at 10 uM incubated for 3 hrs by malachite green reagent based HTS analysis relative to control.
The nature of data set [2]: Inhibition of human HSP70 ATPase activity at incubated for 3 hrs by malachite green reagent based HTS analysis.
Data set [3] can be described thus: Induction of SirT2 production in mouse N2a cells transfected with ApoE4 assessed as increase in SirT2 levels by sandwich ELISA. In kind it is functional, cell-based. In general terms: An ELISA detects its analyte on a solid surface through an enzyme-linked reagent.
Data set [4] in a line: Inhibition of HSP70 in human HeLa C3 cells overexpressing tau protein assessed as reduction in tau protein level measured after 24 hrs by Western blot analysis. Particulars: HeLa C3, 24 h. In kind it is cell-based. For orientation: Immunoblotting shows a protein as a band on a membrane.
A short description of data set [5]: Cmax in mouse brain at 10 mg/kg, ip. It counts as ADME, organism-based. Particulars: in vivo. On the set-up: dose 10 mg/kg, route ip.
Data set [6] is described as follows: Tmax in mouse brain at 10 mg/kg, ip. In kind it is ADME, organism-based.
Data set [7] can be described thus: Inhibition of HSP70 in human SK-N-BE(2)-M17 cells overexpressing tau protein assessed as reduction in tau protein level measured after 24 hrs by Western blot analysis. It counts as cell-based. Particulars: SK-N-BE(2)-M17, 24 h.
Data set [8] has as its system HeLa C3. As to the kind of experiment: Inhibition of HSP70 in human HeLa C3 cells overexpressing tau protein assessed as reduction in tau protein level at 0.025 to 9 uM measured after 24 hrs by Western blot analysis relative to control. Particulars: dose 0.025-9 µM. In kind it is cell-based.
Data set [9] concerns SK-N-BE(2)-M17. Description: Inhibition of HSP70 in human SK-N-BE(2)-M17 cells overexpressing tau protein assessed as reduction in tau protein level at 0.025 to 9 uM measured after 24 hrs by Western blot analysis relative to control. It counts as cell-based. Particulars: dose 0.025-9 µM.
Data set [10] concerns Drosophila. Description: Inhibition of tau protein accumulation in Drosophila larvae eye assessed as reduction in tau protein level at 0.75 mg/ml dripped every other day by immunohistochemistry. In kind it is functional.
A short description of data set [11]: Reduction of tau protein level in human HeLa C3 cells transfected with human 4R0N tau at 30 uM incubated for 24 hrs by Western blot analysis relative to control. In kind it is functional. The arrangement: scale not given: the % may be the effect or the level left.

Molecule `CNc1ccc2nc3ccc(N)cc3[s+]c2c1` [AZURE C] returned an inhibition in [1] of over 80%. The molecule also had an IC50 in data set [2] of 11 µM.
In [1], `O=c1c(O)c(-c2cc(O)c(O)c(O)c2)oc2cc(O)cc(O)c12` [MYRICETIN] registered an inhibition of over 80%. This molecule had an IC50 in [2] of 12 µM.
As to `CC(N)C(=O)OC(C)(C)Cc1ccc(Cl)cc1` (stereo unspecified) [ALAPROCLATE], the EC50 in data set [3] was determined as 2 µM.
Regarding `CCn1c(=O)/c(=C2\Sc3ccccc3N2C)s/c1=C\c1cccc[n+]1CC`, in data set [4], the EC50 was determined as 8 µM.
Take `CCNC1=NC(c2ccc(F)cc2)NC(=O)N1` (stereo unspecified): the Cmax in data set [5] turned out to be 1.5 ng/mg. In addition, in data set [6], the time of peak concentration (Tmax) was 30 min.
Take `CN(C)c1ccc2nc3ccc(=[N+](C)C)cc-3sc2c1`: the inhibition in [1] is over 80%.
Consider `CCn1c(=O)/c(=C2\Sc3ccccc3N2C)s/c1=C\c1cccc[n+]1C`, for which the concentration for a half-maximal effect (EC50) in data set [7] stood at 1.5 µM; in [4], 0.9 µM. Moreover, the inhibition in [8] and in data set [9] was 75% throughout.
For `O=C1C(Cl)=C(N[C@@H](Cc2c[nH]c3ccccc23)C(=O)O)C(=O)c2ccccc21`, the inhibition at 750 µg/mL in [10] came to 70%.
In data set [11], `CCn1c(=O)/c(=C2\Sc3cc(C(F)(F)F)ccc3N2C)s/c1=C\c1ccccn1` registered an Activity of 50%.
As for `CN(C)c1ccc2nc3ccc(N(C)C)cc3[s+]c2c1` [METHYLENE BLUE ANHYDROUS], the IC50 in data set [2] is 83 µM.
